{
  "source": "ChEMBL document CHEMBL1201862",
  "about": "“PubChem BioAssay data set” (2004)",
  "assay_in_all_cases": "NCI anticancer screen, dose series, 48 h",
  "key": {"BT-549": {"test_system": "BT-549"}, "CCRF-CEM": {"test_system": "CCRF-CEM"}, "NCI-H460": {"test_system": "NCI-H460"}, "DU-145": {"test_system": "DU-145"}, "MDA-MB-231": {"test_system": "MDA-MB-231"}, "A549": {"test_system": "A549"}, "SN12C": {"test_system": "SN12C"}, "SR": {"test_system": "SR"}, "NCI-H522": {"test_system": "NCI-H522"}, "NCI-H226": {"test_system": "NCI-H226"}, "RPMI-8226": {"test_system": "RPMI-8226"}, "OVCAR-5": {"test_system": "OVCAR-5"}, "SF-295": {"test_system": "SF-295"}, "OVCAR-4": {"test_system": "OVCAR-4"}, "786-0": {"test_system": "786-0"}, "UACC-257": {"test_system": "UACC-257"}, "IGROV-1": {"test_system": "IGROV-1"}, "SNB-19": {"test_system": "SNB-19"}, "SF-539": {"test_system": "SF-539"}, "HL-60": {"test_system": "HL-60"}, "T47D": {"test_system": "T47D"}, "UACC-62": {"test_system": "UACC-62"}, "MDA-MB-435": {"test_system": "MDA-MB-435"}, "OVCAR-3": {"test_system": "OVCAR-3"}, "SK-MEL-2": {"test_system": "SK-MEL-2"}, "HT-29": {"test_system": "HT-29"}, "CAKI-1": {"test_system": "CAKI-1"}, "MOLT-4": {"test_system": "MOLT-4"}, "SW-620": {"test_system": "SW-620"}, "COLO 205": {"test_system": "COLO 205"}, "SNB-75": {"test_system": "SNB-75"}, "UO-31": {"test_system": "UO-31"}, "K562": {"test_system": "K562"}, "U-251": {"test_system": "U-251"}, "SK-MEL-28": {"test_system": "SK-MEL-28"}, "LOX IMVI": {"test_system": "LOX IMVI"}, "HCT-116": {"test_system": "HCT-116"}, "NCI-H23": {"test_system": "NCI-H23"}, "OVCAR-8": {"test_system": "OVCAR-8"}, "Malme-3M": {"test_system": "Malme-3M"}, "HOP-62": {"test_system": "HOP-62"}, "SK-OV-3": {"test_system": "SK-OV-3"}, "PC-3": {"test_system": "PC-3"}, "M14": {"test_system": "M14"}, "KM12": {"test_system": "KM12"}, "HOP-92": {"test_system": "HOP-92"}, "HCC 2998": {"test_system": "HCC 2998"}, "HCT-15": {"test_system": "HCT-15"}, "SK-MEL-5": {"test_system": "SK-MEL-5"}, "NCI/ADR-RES": {"test_system": "NCI/ADR-RES"}, "A498": {"test_system": "A498"}, "Hs-578T": {"test_system": "Hs-578T"}, "MDA-N": {"test_system": "MDA-N"}, "EKVX": {"test_system": "EKVX"}, "MCF7": {"test_system": "MCF7"}, "ACHN": {"test_system": "ACHN"}, "SF-268": {"test_system": "SF-268"}, "TK-10": {"test_system": "TK-10"}},
  "note": "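Five concentrations, 48 hours, 96-well plates. The concentration for 50% growth inhibition is given as GI50.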 Activity calls are given as the source filed them. Cut-off read from the data, not from the text of the source: active = GI50 up to about 1.1 µM and inactive = higher.",
  "data": [
    {"smiles": "CN(C)CCOc1ccc2[nH]c(C(=O)N3CC(CCl)c4c3cc(N)c3ccccc43)cc2c1", "note": "(stereo not drawn)", "values": [
      {"measurement": "GI50", "setting": "BT-549", "result": "< 10 nM (active)"},
      {"measurement": "GI50", "setting": "CCRF-CEM", "result": "< 10 nM (active)"},
      {"measurement": "GI50", "setting": "NCI-H460", "result": "< 10 nM (active)"},
      {"measurement": "GI50", "setting": "DU-145", "result": "< 10 nM (active)"},
      {"measurement": "GI50", "setting": "MDA-MB-231", "result": "< 10 nM (active)"},
      {"measurement": "GI50", "setting": "A549", "result": "< 10 nM (active)"},
      {"measurement": "GI50", "setting": "SN12C", "result": "< 10 nM (active)"},
      {"measurement": "GI50", "setting": "SR", "result": "< 10 nM (active)"},
      {"measurement": "GI50", "setting": "NCI-H522", "result": "< 10 nM (active)"},
      {"measurement": "GI50", "setting": "NCI-H226", "result": "< 10 nM (active)"},
      {"measurement": "GI50", "setting": "RPMI-8226", "result": "< 10 nM (active)"},
      {"measurement": "GI50", "setting": "OVCAR-5", "result": "< 10 nM (active)"},
      {"measurement": "GI50", "setting": "SF-295", "result": "< 10 nM (active)"},
      {"measurement": "GI50", "setting": "OVCAR-4", "result": "< 10 nM (active)"},
      {"measurement": "GI50", "setting": "786-0", "result": "< 10 nM (active)"},
      {"measurement": "GI50", "setting": "UACC-257", "result": "< 10 nM (active)"},
      {"measurement": "GI50", "setting": "IGROV-1", "result": "< 10 nM (active)"},
      {"measurement": "GI50", "setting": "SNB-19", "result": "< 10 nM (active)"},
      {"measurement": "GI50", "setting": "SF-539", "result": "< 10 nM (active)"},
      {"measurement": "GI50", "setting": "HL-60", "result": "< 10 nM (active)"},
      {"measurement": "GI50", "setting": "T47D", "result": "< 10 nM (active)"},
      {"measurement": "GI50", "setting": "UACC-62", "result": "< 10 nM (active)"},
      {"measurement": "GI50", "setting": "MDA-MB-435", "result": "< 10 nM (active)"},
      {"measurement": "GI50", "setting": "OVCAR-3", "result": "< 10 nM (active)"},
      {"measurement": "GI50", "setting": "SK-MEL-2", "result": "< 10 nM (active)"},
      {"measurement": "GI50", "setting": "HT-29", "result": "< 10 nM (active)"},
      {"measurement": "GI50", "setting": "CAKI-1", "result": "< 10 nM (active)"},
      {"measurement": "GI50", "setting": "MOLT-4", "result": "< 10 nM (active)"},
      {"measurement": "GI50", "setting": "SW-620", "result": "< 10 nM (active)"},
      {"measurement": "GI50", "setting": "COLO 205", "result": "< 10 nM (active)"},
      {"measurement": "GI50", "setting": "SNB-75", "result": "< 10 nM (active)"},
      {"measurement": "GI50", "setting": "UO-31", "result": "< 10 nM (active)"},
      {"measurement": "GI50", "setting": "K562", "result": "< 10 nM (active)"},
      {"measurement": "GI50", "setting": "U-251", "result": "< 10 nM (active)"},
      {"measurement": "GI50", "setting": "SK-MEL-28", "result": "< 10 nM (active)"},
      {"measurement": "GI50", "setting": "LOX IMVI", "result": "< 10 nM (active)"},
      {"measurement": "GI50", "setting": "HCT-116", "result": "< 10 nM (active)"},
      {"measurement": "GI50", "setting": "NCI-H23", "result": "< 10 nM (active)"},
      {"measurement": "GI50", "setting": "OVCAR-8", "result": "< 10 nM (active)"},
      {"measurement": "GI50", "setting": "Malme-3M", "result": "< 10 nM (active)"},
      {"measurement": "GI50", "setting": "HOP-62", "result": "< 10 nM (active)"},
      {"measurement": "GI50", "setting": "SK-OV-3", "result": "< 10 nM (active)"},
      {"measurement": "GI50", "setting": "PC-3", "result": "< 10 nM (active)"},
      {"measurement": "GI50", "setting": "M14", "result": "< 10 nM (active)"},
      {"measurement": "GI50", "setting": "KM12", "result": "< 10 nM (active)"},
      {"measurement": "GI50", "setting": "HOP-92", "result": "< 10 nM (active)"},
      {"measurement": "GI50", "setting": "HCC 2998", "result": "< 10 nM (active)"},
      {"measurement": "GI50", "setting": "HCT-15", "result": "< 10", "unit": "nM"},
      {"measurement": "GI50", "setting": "SK-MEL-5", "result": "< 10 nM (active)"},
      {"measurement": "GI50", "setting": "NCI/ADR-RES", "result": "< 10 nM (active)"},
      {"measurement": "GI50", "setting": "A498", "result": "< 10 nM (active)"},
      {"measurement": "GI50", "setting": "Hs-578T", "result": "< 10 nM (active)"},
      {"measurement": "GI50", "setting": "MDA-N", "result": "< 10 nM (active)"},
      {"measurement": "GI50", "setting": "EKVX", "result": "< 10 nM (active)"},
      {"measurement": "GI50", "setting": "MCF7", "result": "< 10 nM (active)"},
      {"measurement": "GI50", "setting": "ACHN", "result": "< 10 nM (active)"},
      {"measurement": "GI50", "setting": "SF-268", "result": "< 10 nM (active)"},
      {"measurement": "GI50", "setting": "TK-10", "result": "< 10 nM (active)"}
    ]}
  ]
}
